Measurements taken from ChEMBL document CHEMBL3091361, “Synthesis, structure elucidation and in vitro anticancer activities of novel derivatives of diethyl (2E)-2-[(2E)-(1-arylimidazolidin-2-ylidene)hydrazono]succinate and ethyl (4-oxo-8-aryl-4,6,7,8-tetrahydroimidazo[2,1-c][1,2,4]triazin-3-yl)acetate” (Bioorg Med Chem, 2013).

Columns and labels:
[1] = system: T47D; experiment: Cytotoxicity against human T47D cells at 50 ug/ml after 72 hrs by BrdU incorporation assay relative to control; type: functional; conditions: read-out: GI
[2] = system: T47D; experiment: Cytotoxicity against human T47D cells at 50 ug/ml after 48 hrs by BrdU incorporation assay relative to control; type: functional; conditions: read-out: GI
[3] = system: T47D; experiment: Cytotoxicity against human T47D cells at 50 ug/ml after 24 hrs by BrdU incorporation assay relative to control; type: functional; conditions: read-out: GI
[4] = system: HeLa; experiment: Cytotoxicity against human HeLa cells at 50 ug/ml after 72 hrs by BrdU incorporation assay relative to control; type: functional; conditions: read-out: GI
[5] = system: HeLa; experiment: Cytotoxicity against human HeLa cells at 50 ug/ml after 48 hrs by BrdU incorporation assay relative to control; type: functional; conditions: read-out: GI
[6] = system: HeLa; experiment: Cytotoxicity against human HeLa cells at 50 ug/ml after 24 hrs by BrdU incorporation assay relative to control; type: functional; conditions: read-out: GI
[7] = Cytotoxicity against human MM1S cells at 50 ug/ml after 72 hrs by BrdU incorporation assay relative to control; type: functional; conditions: MM1.S, read-out: GI
[8] = Cytotoxicity against human MM1S cells at 50 ug/ml after 48 hrs by BrdU incorporation assay relative to control; type: functional; conditions: MM1.S, read-out: GI
[9] = Cytotoxicity against human MM1S cells at 50 ug/ml after 24 hrs by BrdU incorporation assay relative to control; type: functional; conditions: MM1.S, read-out: GI
[10] = Cytotoxicity against human MM1R cells at 50 ug/ml after 72 hrs by BrdU incorporation assay relative to control; type: functional; conditions: MM.1R, read-out: GI
[11] = Cytotoxicity against human MM1R cells at 50 ug/ml after 48 hrs by BrdU incorporation assay relative to control; type: functional; conditions: MM.1R, read-out: GI
[12] = Cytotoxicity against human MM1R cells at 50 ug/ml after 24 hrs by BrdU incorporation assay relative to control; type: functional; conditions: MM.1R, read-out: GI
[13] = Cytotoxicity against human HSF cells at 50 ug/ml after 72 hrs by BrdU incorporation assay relative to control; type: cell-based; conditions: read-out: GI
[14] = Cytotoxicity against human HSF cells at 50 ug/ml after 48 hrs by BrdU incorporation assay relative to control; type: cell-based; conditions: read-out: GI
[15] = Cytotoxicity against human HSF cells at 50 ug/ml after 24 hrs by BrdU incorporation assay relative to control; type: cell-based; conditions: read-out: GI
[16] = system: T47D; experiment: Induction of necrosis in human T47D cells at 50 ug/ml after 72 hrs by propidium iodide/Hoechst 33342 staining-based confocal microscopy (reference value: 10%); type: functional
[17] = system: HeLa; experiment: Induction of necrosis in human HeLa cells at 50 ug/ml after 72 hrs by propidium iodide/Hoechst 33342 staining-based confocal microscopy (reference value: 10%); type: functional
[18] = Induction of necrosis in human HSF cells at 50 ug/ml after 72 hrs by propidium iodide/Hoechst 33342 staining-based confocal microscopy (reference value: 5%); type: cell-based
[19] = system: T47D; experiment: Induction of necrosis in human T47D cells at 50 ug/ml after 48 hrs by propidium iodide/Hoechst 33342 staining-based confocal microscopy (reference value: 8%); type: functional
[20] = system: HeLa; experiment: Induction of necrosis in human HeLa cells at 50 ug/ml after 48 hrs by propidium iodide/Hoechst 33342 staining-based confocal microscopy (reference value: 10%); type: functional
[21] = Induction of necrosis in human HSF cells at 50 ug/ml after 48 hrs by propidium iodide/Hoechst 33342 staining-based confocal microscopy (reference value: 4%); type: cell-based
[22] = system: T47D; experiment: Induction of necrosis in human T47D cells at 50 ug/ml after 24 hrs by propidium iodide/Hoechst 33342 staining-based confocal microscopy (reference value: 5%); type: functional
[23] = system: HeLa; experiment: Induction of necrosis in human HeLa cells at 50 ug/ml after 24 hrs by propidium iodide/Hoechst 33342 staining-based confocal microscopy (reference value: 5%); type: functional
[24] = Induction of necrosis in human HSF cells at 50 ug/ml after 24 hrs by propidium iodide/Hoechst 33342 staining-based confocal microscopy (reference value: 2%); type: cell-based
[25] = system: T47D; experiment: Induction of apoptosis in human T47D cells at 50 ug/ml after 72 hrs by propidium iodide/Hoechst 33342 staining-based confocal microscopy (reference value: 5%); type: functional
[26] = system: HeLa; experiment: Induction of apoptosis in human HeLa cells at 50 ug/ml after 72 hrs by propidium iodide/Hoechst 33342 staining-based confocal microscopy (reference value: 5%); type: functional
[27] = Induction of apoptosis in human HSF cells at 50 ug/ml after 72 hrs by propidium iodide/Hoechst 33342 staining-based confocal microscopy (reference value: 5%); type: cell-based
[28] = system: T47D; experiment: Induction of apoptosis in human T47D cells at 50 ug/ml after 48 hrs by propidium iodide/Hoechst 33342 staining-based confocal microscopy (reference value: 2%); type: functional
[29] = system: HeLa; experiment: Induction of apoptosis in human HeLa cells at 50 ug/ml after 48 hrs by propidium iodide/Hoechst 33342 staining-based confocal microscopy (reference value: 5%); type: functional
[30] = Induction of apoptosis in human HSF cells at 50 ug/ml after 48 hrs by propidium iodide/Hoechst 33342 staining-based confocal microscopy (reference value: 5%); type: cell-based
[31] = system: T47D; experiment: Induction of apoptosis in human T47D cells at 50 ug/ml after 24 hrs by propidium iodide/Hoechst 33342 staining-based confocal microscopy (reference value: 2%); type: functional
[32] = system: HeLa; experiment: Induction of apoptosis in human HeLa cells at 50 ug/ml after 24 hrs by propidium iodide/Hoechst 33342 staining-based confocal microscopy (reference value: 2%); type: functional
[33] = Induction of apoptosis in human HSF cells at 50 ug/ml after 24 hrs by propidium iodide/Hoechst 33342 staining-based confocal microscopy (reference value: 2%); type: cell-based
[34] = Selectivity ratio for human RPMI8226 cells over human HSF cells; type: ADME, cell-based, RPMI-8226; conditions: RPMI8226 cells versus HSF cells
[35] = Toxicity in ip dosed albino-Swiss mouse; type: organism-based; conditions: in vivo

| SMILES | inhibition of growth at 50 µg/mL [1] [%] | inhibition of growth at 50 µg/mL [2] [%] | inhibition of growth at 50 µg/mL [3] [%] | inhibition of growth at 50 µg/mL [4] [%] | inhibition of growth at 50 µg/mL [5] [%] | inhibition of growth at 50 µg/mL [6] [%] | inhibition of growth at 50 µg/mL [7] [%] | inhibition of growth at 50 µg/mL [8] [%] | inhibition of growth at 50 µg/mL [9] [%] | inhibition of growth at 50 µg/mL [10] [%] | inhibition of growth at 50 µg/mL [11] [%] | inhibition of growth at 50 µg/mL [12] [%] | inhibition at 72 h, 50 ug/ml [13] [%] | inhibition at 48 h, 50 ug/ml [14] [%] | inhibition at 24 h, 50 ug/ml [15] [%] | other results |
| --- | --- | --- | --- | --- | --- | --- | --- | --- | --- | --- | --- | --- | --- | --- | --- | --- |
| CCOC(=O)C/C(=N\N=C1/NCCN1c1ccc(C)cc1)C(=O)OCC | 80 | 75 | 50 | 50 | 45 | 5 | 85 | 70 | 55 | 95 | 90 | 75 | 80 | 80 | 70 | – |
| CCOC(=O)C/C(=N\N=C1/NCCN1c1cccc(Cl)c1)C(=O)OCC | 90 | 85 | 80 | 45 | 25 | 5 | 80 | 65 | 40 | 80 | 75 | 70 | 90 | 90 | 70 | – |
| CCOC(=O)C/C(=N\N=C1/NCCN1c1ccc(Cl)cc1)C(=O)OCC | 90 | 85 | 80 | 55 | 30 | 10 | 90 | 75 | 65 | 90 | 80 | 65 | 90 | 90 | 70 | – |
| CCOC(=O)C/C(=N\N=C1/NCCN1c1ccc(Cl)c(Cl)c1)C(=O)OCC | 100 | 95 | 80 | 60 | 50 | 50 | 90 | 80 | 70 | 80 | 80 | 70 | 90 | 90 | 70 | – |
| CCOC(=O)Cc1nnc2n(c1=O)CCN2c1ccccc1 | 85 | 80 | 40 | 75 | 75 | 20 | 80 | 30 | 25 | 90 | 85 | 80 | 50 | 50 | 25 | Activity [16]: 85%; Activity [17]: 80%; Activity [18]: 50%; Activity [19]: 80%; Activity [20]: 75%; Activity [21]: 50%; Activity [22]: 40%; Activity [23]: 20%; Activity [24]: 25%; Activity [25]: 10%; Activity [26]: 15%; Activity [27]: 8%; Activity [28]: 10%; Activity [29]: 15%; Activity [30]: 5%; Activity [31]: 5%; Activity [32]: 10%; Activity [33]: 5% |
| CCOC(=O)Cc1nnc2n(c1=O)CCN2c1ccc(C)cc1 | 80 | 75 | 25 | 70 | 70 | 20 | 70 | 60 | 50 | 75 | 70 | 60 | 80 | 75 | 50 | – |
| CCOC(=O)Cc1nnc2n(c1=O)CCN2c1ccccc1OC | 40 | 35 | 30 | 50 | 45 | 10 | 85 | 55 | 45 | 95 | 80 | 75 | 80 | 80 | 50 | – |
| CCOC(=O)Cc1nnc2n(c1=O)CCN2c1cccc(Cl)c1 | 55 | 55 | 55 | 50 | 50 | 10 | 80 | 60 | 55 | 90 | 85 | 80 | 10 | 10 | 10 | Activity [16]: 55%; Activity [17]: 50%; Activity [18]: 10%; Activity [19]: 50%; Activity [20]: 50%; Activity [21]: 10%; Activity [22]: 25%; Activity [23]: 10%; Activity [24]: 10%; Activity [25]: 20%; Activity [26]: 15%; Activity [27]: 10%; Activity [28]: 20%; Activity [29]: 15%; Activity [30]: 5%; Activity [31]: 10%; Activity [32]: 10%; Activity [33]: 5% |
| CCOC(=O)Cc1nnc2n(c1=O)CCN2c1ccc(Cl)c(Cl)c1 | 50 | 40 | 25 | 80 | 45 | 45 | 80 | 65 | 40 | 90 | 80 | 65 | 70 | 60 | 50 | Activity [16]: 50%; Activity [17]: 80%; Activity [18]: 70%; Activity [19]: 45%; Activity [20]: 45%; Activity [21]: 60%; Activity [22]: 25%; Activity [23]: 45%; Activity [24]: 50%; Activity [25]: 20%; Activity [26]: 15%; Activity [27]: 12%; Activity [28]: 10%; Activity [29]: 10%; Activity [30]: 10%; Activity [31]: 15%; Activity [32]: 10%; Activity [33]: 10% |
| O=c1c(-c2ccccc2)nnc2n1CCN2c1cccc(Cl)c1 | – | – | – | – | – | – | – | – | – | – | – | – | – | – | – | selectivity ratio [34]: 1.5 |
| O=c1c(-c2ccccc2)nnc2n1CCN2c1ccc(Cl)cc1 | – | – | – | – | – | – | – | – | – | – | – | – | – | – | – | LD50 [35]: > 2000 mg/kg |
